Measured values from patent US6399580B1, “Methods and compositions for stimulating tissue growth and epithelial moisturization” (The Regents of the University of California, priority 1994, dated 2002).

Experiments:
Format in all cases: in vivo
β-glucocerebrosidase = biological target: T1, β-glucocerebrosidase (Mus musculus, UniProt P17439); assay: Epidermal β-glucocerebrosidase activity after topical BrCBE; settings: topical BrCBE 325 nmol once daily
T1 construct: from tissue; host or cells: epidermis of hairless mice (Simonsen Laboratories, Gilroy, Calif.)
T1 sequence (P17439 20-515): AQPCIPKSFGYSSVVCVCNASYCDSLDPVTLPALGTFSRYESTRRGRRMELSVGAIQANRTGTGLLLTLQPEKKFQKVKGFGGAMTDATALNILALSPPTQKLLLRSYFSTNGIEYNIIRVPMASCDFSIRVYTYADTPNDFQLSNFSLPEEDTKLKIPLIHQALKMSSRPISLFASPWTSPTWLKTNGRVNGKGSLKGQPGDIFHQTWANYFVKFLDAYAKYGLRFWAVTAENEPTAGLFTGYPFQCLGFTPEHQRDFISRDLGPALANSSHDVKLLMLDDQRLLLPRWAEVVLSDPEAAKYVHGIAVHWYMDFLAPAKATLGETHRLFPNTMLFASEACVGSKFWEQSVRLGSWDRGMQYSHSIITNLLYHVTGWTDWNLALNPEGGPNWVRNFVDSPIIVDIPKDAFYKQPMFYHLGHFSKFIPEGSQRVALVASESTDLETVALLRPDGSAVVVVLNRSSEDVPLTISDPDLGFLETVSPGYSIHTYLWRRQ
Method: (§1) To determine whether inhibitors of β-glucocerebrosidase would cause more profound effects than applications of exogenous GlcCER alone (examples 5&6), we next applied the specific, suicide inhibitor, bromoconduritol-B-epoxide (BrCBE) to intact hairless mouse skin (Simonsen Laboratories, Gilroy, Calif.) (Holleran, W. M. et al., J. Clin. Invest. (1993) 91:1656-1664). BrCBE (325 nmol in 20 μl propylene glycol:ethanol, 7:3 vols) was applied once daily for 0-14 days. (Holleran, W. M. et al. (1994) J. Clin. Inv. 93:1756-1764)

hairless mouse epidermis = assay: Epidermal / stratum corneum lipid content (HPTLC/TLC)
Method: Hairless mice were treated with BrCBE for 5 days as described in Example 10. The following high performance thin layer chromatograph (HPTLC) system was developed for optimal separation of ceramides and glucosylceramides for quantitation by spectrodensitometry. Extracts were applied to precleaned 10 ×20 cm HPTLC plates, 0.5 cm from lower edge of the plate and fractionated sequentially in a horizontal developmental chamber (Camag, Muttenz, Switzerland) in the following solvent systems: 1) chloroform:methanol:acetic acid (190:9:1), v/v/v) to the top, twice; 2) chloroform:methanol:acetone (76:20:4, by volume) to 30 mm. Between each development, the plate was dried for 5 minutes on a hot plate (40° C.), cooled for 2 minutes, and equilibrated in the tank with the solvents for 3 minutes. After final development, the plates were dried, cooled, dipped in charring solution (1.5% cupric sulfate in acetic acid:sulfuric acid:orthophosphoric acid:water (50:10:10:30, by volume) for 15 seconds, dried (40° .C) for 5 minutes, and then charred at 180° C. for 15 minutes. Plates were scanned with a variable wavelength scanning densitometer (Camag, Muttenz, Switzerland). Lipid amounts for each fraction were estimated using ceramides 3 and 4, and galactosylceramides 1 and 2 as reference standards (Sigma Chemical Co., St. Louis, Mo.).
The epidermal glucosylceramide content was determined in mice treated with the topical β-glucocerebrosidase inhibitors. Mice were treated with CBE for one day as described in FIG. 22. The mice were sacrificed and whole skin was excised. Subcutaneous fascia and fat were scraped off, and the samples were placed dermis side down onto […] EDTA in PBS-CMF (pH 7.4) and incubated at 37° C. for 40 min. Skin was blotted dry with a tissue and the epidermis was removed by scraping with a surgical blade. The epidermis was minced, placed into microcentrifuge vials, immediately snap frozen and stored in liquid N2 until extracted.
For extraction the tissue was soaked in 7.6 ml Bligh/Dyer extraction media (2 ml chloroform, 4 ml Methanol, 1.6 ml H2O) overnight at room temperature. The following day the tissue was shaken for 20 min. and centrifuged for 10 min. the solvent was removed and the pellet was combined with 7.6 ml Bligh/Dyer media and again shaken and centrifuged. The solvents were combined with solvent from the soaks and filtered through pre-solvent-washed Whatman 43 filter paper, 2 ml chloroform and 2 ml H2O was added to each 7.6 ml quantity of the filtrate and shaken for 10 min. The samples were then centrifuged and the upper phase discarded. The lower phase was washed with 4 ml chloroform, 4 ml MetOH, and 3.6 ml H2O (shaken for 10 min and centrifuged). The upper phase was discarded. The lower phase was dried under N2 in a 47° C. water bath. The lipid was resuspended in chloroform and weighed on the Cahn balance.
TLC was performed using 15-20 μg samples and quantitated against standard glycosylceramide and 40 μg sample for sphingolipids (Holleran, W. M. et al. (1993) J. Clin. Invest. 91:1656-1664).
Both glucosylceramide and ceramide content was then determined in lower (stratum basale) and upper (stratum spinosum, stratum granulosum and stratum corneum) epidermis (FIG. 23). Following 24 hours of CBE treatment samples were excised following treatment (as in Example 16).

[1] = system: intact hairless mouse skin; assay: Transepidermal water loss after topical application; settings: BrCBE 325 nmol topical once daily, after four daily applications
Method: as §1
Transepidermal Water Loss was determined by using a MEECO electrolytic water analyzer (MEECO, Warrington, Pa.). Water loss measurements are recorded over a small area of skin (0.5cm^2) in parts per million/0.5cm^2 per hour over background.

hairless mouse skin = assay: Appearance and texture of treated skin
Method: as §1

[2] = BrCBE 325 nmol/5cm^2/day, five days

epidermal β-glucocerebrosidase activity, of normal (β-glucocerebrosidase): 5 % of normal | reduction of epidermal β-glucocerebrosidase activity (β-glucocerebrosidase): about 95% | inflammation or edema (hairless mouse skin; BrCBE-treated skin): no indication of inflammation or edema
SMILES: OC1C(O)C(Br)C2OC2C1O (stereo not shown) [BrCBE, bromoconduritol-B-epoxide]
ceramide content, whole epidermis lipid extracts (hairless mouse epidermis; [2]): decrease | epidermal glucosylceramides, whole epidermis lipid extracts (hairless mouse epidermis; [2]): increased | increase in stratum corneum glucosylceramides (hairless mouse epidermis; BrCBE 5 days, vs vehicle-treated and/or untreated murine stratum corneum, FIG. 14): eight to ten | TEWL plateau level (defect in permeability barrier function) [1]: 10-15 times normal | skin moisture content (hairless mouse skin; BrCBE-treated skin): increased moisture content | skin smoothness and softening of skin surface (hairless mouse skin; BrCBE-treated skin): marked increase | skin wrinkling (hairless mouse skin; BrCBE-treated vs vehicle-treated skin, visual inspection): reduced
